The results in this text go back to US8686126B2, “HBV drug resistance methods” (priority 2002, dated 2014).

This assay has as its system HBsAg. In words: Serum levels of HBsAg by modified Laurell electrophoresis in HBV-infected patient No. 7. It is filed as in vivo. As to conditions: lamivudine treatment, just after breakthrough virus emerged. Here is the method:
HBsAg, anti-HBs, HBeAg, anti-HBe, and anti-HCV were determined by the microparticle enzyme-immunoassay ([…]) method (Abbott Laboratories, North Chicago, Ill., US). Anti-HDV enzyme-immunoassay method was performed as per the methodology supplied by the manufacturer (Abbott Laboratories, North Chicago, Ill., US). Serum levels of HBsAg were determined by a modified Laurell electrophoresis system (Gerlich et al., 1975). HBV-DNA levels were tested by using a commercial liquid-hybridization assay (Digene, Maryland, US), with the lower limit of detection of this assay 5 pg/mL of viral DNA.
The HBsAg level of the patient was 1.19 μg/mL at the beginning of the lamivudine treatment and became undetectable after 4 months.

As to `Nc1ccn([C@@H]2CS[C@H](CO)O2)c(=O)n1` [lamivudine, beta-L-(−)-2′,3′-dideoxy-3′-thiacytidine], the HBsAg level came out at 10.8 µg/mL.
